For this assay, the target named is GSK-3β (Homo sapiens, UniProt P49841). In words: ADP-Glo kinase assay with Promega GSK-3β enzyme. It counts as biochemical. On the technique in general: ADP-Glo turns the ADP formed in a reaction into a luminescent signal.

Each structure is given as a SMILES string.

Sequence of GSK-3β (P49841 whole entry): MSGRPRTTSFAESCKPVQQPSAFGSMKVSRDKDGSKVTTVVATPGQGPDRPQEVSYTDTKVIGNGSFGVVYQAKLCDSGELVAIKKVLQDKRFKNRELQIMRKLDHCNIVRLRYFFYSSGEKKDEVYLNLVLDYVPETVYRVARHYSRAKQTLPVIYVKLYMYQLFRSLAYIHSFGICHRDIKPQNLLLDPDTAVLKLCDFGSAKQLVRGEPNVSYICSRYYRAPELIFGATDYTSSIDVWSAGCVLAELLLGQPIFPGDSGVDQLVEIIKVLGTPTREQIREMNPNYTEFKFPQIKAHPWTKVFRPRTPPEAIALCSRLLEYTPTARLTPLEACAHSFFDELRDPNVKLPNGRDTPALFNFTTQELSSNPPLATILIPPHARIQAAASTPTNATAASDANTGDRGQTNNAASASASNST

`COc1ccc(Cn2cc(CN3C(=O)C(=NNc4ccccc4)c4ccccc43)nn2)cc1` [6Ec, 1-((1-(4-Methoxybenzyl)-1H-1,2,3-triazol-4-yl)methyl)-3-(2-phenylhydrazono) indolin-2-one]: the IC50 (commonly the concentration that gives 50% inhibition) came out at 59.8 µM.

For the origin of these results see paper PMC12257299 (RSC Advances, 2025).
